Consider four compounds from patent US5151502A, “Method for solubilizing membrane receptor proteins” (E. R. Squibb & Sons, Inc., priority 1991, dated 1992).

The target in one data set is T1, soluble AII receptor (Bos taurus, UniProt P25104).
T1 construct: from tissue; host or cells: bovine adrenal microsomal membranes, solubilized with CHAPS and treated with SM2 beads
T1 sequence (P25104 1-359): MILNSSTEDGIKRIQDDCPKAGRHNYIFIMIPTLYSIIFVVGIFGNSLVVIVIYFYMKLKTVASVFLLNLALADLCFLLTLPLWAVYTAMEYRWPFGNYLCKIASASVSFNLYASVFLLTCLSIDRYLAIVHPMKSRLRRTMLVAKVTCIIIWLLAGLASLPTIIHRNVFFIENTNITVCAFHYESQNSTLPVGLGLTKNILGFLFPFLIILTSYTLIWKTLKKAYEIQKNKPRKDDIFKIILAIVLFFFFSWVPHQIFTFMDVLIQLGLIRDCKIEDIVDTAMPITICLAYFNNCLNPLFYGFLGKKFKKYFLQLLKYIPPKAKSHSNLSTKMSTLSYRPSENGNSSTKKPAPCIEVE
The experiment in a line: [125I]-SI-AII radioligand binding, CHAPS-solubilized SM2-treated BAMM. Conditions: for Inhibition of [125I]-SI-AII binding (in words): competition experiments. More on the design: species or system bovine. The method, then:
(§1) All procedures were performed at 4° C. unless otherwise noted. Solubilization of specific binding activity was carried out by incubation of BAMM with 5 mM CHAPS. […] The solubilized membranes were centrifuged at 176,000×g (50,000 rpm in a Beckman 80Ti rotor) for 1 hour. The soluble BAMM preparation was stored at […] Prior to assay, soluble BAMM protein was filtered through a 0.22 μm filter and treated with SM2 beads. SM2 treatment proceeded with the addition of 1.1 g (w/v) of the beads and incubation for 1 to 2 hours with constant rotation. The beads were, removed under air pressure. Residual beads were removed from solution by microcentrifugation at 11,000×g (14,000 rpm.) for 15 minutes.
Assays were conducted in 1.2 ml tubes in a total assay volume of 200 μl. The incubation mixture contained 0.1 to 0.2 nM [^125 I]-SI-AII and incubation buffer (50 mM Tris, pH 7.4 at 4° C., 150 mM sodium chloride, 0.1% bovine serum albumin, 0.24 TI units/ml aprotinin, 0.1 mg/ml 1,10-phenanthroline). The binding reaction was initiated by the addition of 20 to 100 μg of BAMM or soluble BAMM diluted in incubation buffer. Binding proceeded at 37° C. for 2 hours with constant agitation. Reactions were terminated and bound and free radioligand separated by rapid filtration over double-thickness glass-fiber filters which had been presoaked in 0.3% polyethyleneimine in 50 mM Tris (pH 7.4) utilizing a Tomtec™96-well cell harvester set at four pulse washes. Filters were counted in a RIASTAT gamma counter or washed twice, microwave-dried, and counted in a Pharmacia 1205 Beta Plate flatbed scintillation counter in the presence of a dry scintillant (Pharmacia MeltiLex Scintillator Sheets™). Dissociation constants and slope factors were calculated according to Cheng and Prusoff (Biochem. Pharmacol. 22, 3099-3109; 1973) and Hill (J. Physiol. 40, 109-224; 1910), respectively. analysis of saturation binding data was performed using nonlinear regression least-square curve fitting to the nontransformed data or by Scathard transformation (Ann. N.Y.Acad. Sci., 51, 660672;1949).

The subject of another data set is AII receptor. The experiment in a line: Recovery of solubilized [125I]-SI-AII binding activity from BAMM. Also noted: species or system bovine. Conditions: DTNB 0.1 mM added to BAMM before solubilization; means ± standard errors, n = 4. The method, then:
as §1
Assays were conducted in 1.2 ml tubes in a total assay volume of 200 μl. […] Filters were counted in a RIASTAT gamma counter or washed twice, microwave-dried, and counted in a Pharmacia 1205 Beta Plate flatbed scintillation counter in the presence of a dry scintillant (Pharmacia MeltiLex Scintillator Sheets™). Dissociation constants and slope factors were calculated according to Cheng and Prusoff (Biochem. Pharmacol. 22, 3099-3109; 1973) and Hill (J. Physiol. 40, 109-224; 1910), respectively. analysis of saturation binding data was performed using nonlinear regression least-square curve fitting to the nontransformed data or by Scathard transformation (Ann. N.Y.Acad. Sci., 51, 660672;1949).

A further data set concerns the target T2, membrane AII receptor (Bos taurus, UniProt P25104).
T2 construct: Aliquots (5 mg/ml) of the bovine adrenal microsomal membranes (BAMM) were stored; from tissue; host or cells: bovine adrenal, microsomal membranes
T2 sequence (P25104 1-359): T1 sequence (P25104 1-359)
The experiment in a line: [125I]-SI-AII radioligand binding, bovine adrenal microsomal membranes (BAMM).

Some results are limits rather than exact numbers.

Procedure for membrane AII receptor: All the procedures were performed at 4° C. unless otherwise indicated. Bovine adrenals were cleaned of connective tissue and fat and were minced in 10 volumes of homogenization buffer (10 mM Tris, pH 7.4 at 4° C. containing 0.25M sucrose and 1 mM ethylenediaminetetraacetic acid). The minced tissue was homogenized using a Brinkmann polytron homogenizer (five ten second bursts at setting #8). The homogenate was centrifuged at 3,000×g (5,000 rpm) in a Sorvall SS34 rotor) for 10 minutes and the supernatant filtered through 3 layers of cheesecloth. The filtrate was centrifuged at 12,000×g (10,000 rpm in a Sorvall SS34 rotor) for 15 minutes. […]

As usually defined, the inhibition is the drop in the measured response relative to a control, in per cent. In turn, `O[C@H](CS)[C@H](O)CS` (racemic) [DTT, dithiothreitol] displayed an inhibition at 5000 µM on soluble AII receptor of about 90%. Further, the IC50 at soluble AII receptor (read-out: DTT concentration giving 50% reduction in ligand activity) was 500 to 1000 µM.

Turning to `O=C(O)c1cc(SSc2ccc([N+](=O)[O-])c(C(=O)O)c2)ccc1[N+](=O)[O-]` [DTNB, dithionitrobenzoic acid], in the data set with AII receptor, the “% recovery of solubilized AII receptor” value came to 11.5 ± 1.5%.

As a reminder, the Kd is the constant that tells how readily two partners part at equilibrium. A high value points to lower affinity. For `CCCCc1nc(Cl)c(CO)n1Cc1ccc(-c2ccccc2-c2nn[nH]n2)cc1` [DuP 753], the results for the equilibrium dissociation constant (Kd) on membrane AII receptor and on soluble AII receptor were 0.202 ± 0.022 µM and 2.54 µM, respectively. The “Slope Factor” value at membrane AII receptor (BAMM, means ± SEM, n = 3 to 5) was determined as 0.91 ± 0.03; on soluble AII receptor (Soluble preparation, means ± SEM, n = 3 to 5) it was 0.51 ± 0.05. Also, at soluble AII receptor (SM2-treated soluble receptors), the “Inhibition of [125I]-SI-AII binding (in words)” value is “complete”.

Turning to `Cc1cc(Cn2cnc3c2CC(C(=O)O)N(C(=O)C(c2ccccc2)c2ccccc2)C3)ccc1N` (stereo not shown) [PD123177], the “Inhibition of [125I]-SI-AII binding (in words)” value at soluble AII receptor (SM2-treated soluble receptors) is given as “negligible”. At soluble AII receptor (SM2-treated soluble receptors, read-out: inhibition constant), the Ki was over 100 µM.
